Results: patent US10253002B2, “Compounds and methods of treating infections” (Neoculi Pty Ltd., priority 2013, dated 2019)
≈ marks a conversion by molar mass, not a printed value. Read-outs that look alike come from different tables or passages of the source.

Experiments:
[1] = test system: VRE; assay: Broth microdilution MIC, Example 7 (NCL812 and analogues); type: cell-based, Enterococcus spp.; details: Enterococcus, VRE, read-out: MIC
Summary of the method: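 Turbidity read visually and then at 600 nm defined the MIC (μg/ml), comparing drug-containing wells with a growth-control well lacking antimicrobial. Testing followed the CLSI broth microdilution method, in duplicate, using two strains per organism group.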

[2] = test system: S. aureus clinical isolates (MRSA and MSSA); assay: Broth microdilution MIC, Example 4; type: cell-based, Staphylococcus aureus; details: for MIC / MIC50 / MIC90: Staphylococcus aureus; for MIC: 24 h
Description: Microtiter plates containing two-fold dilutions of each antimicrobial agent were inoculated with ˜10^5 CFU/ml of each isolate in a 100 μL final volume. Plates were incubated for 24 h at 37° C. Turbidity (absorbance at OD600) was measured using a Bio-Rad Benchmark Plus microplate spectrophotometer in Microplate Manager® version 5.2.1 (Bio-Rad). Minimum inhibitory concentration (MIC) endpoints were defined as the lowest antimicrobial concentration assessed by the spectrophotometer that inhibited bacterial growth. ATCC 49775 was included in the isolate collection as a control organism using breakpoints defined by the CLSI. The MIC50, MIC90 (concentrations that inhibited growth of the lower 50% and 90% of total organisms, respectively), and MIC range (minimum and maximum) were calculated to profile the antimicrobial susceptibility of the isolate collection.

[3] = Methicillin-susceptible staphylococci (n = 10)
[4] = Total bacterial isolates (n = 30)

SMILES: CC1(C)S[C@@H]2[C@H](NC(=O)[C@H](N)c3ccccc3)C(=O)N2[C@H]1C(=O)O [Ampicillin]
- MIC ([1]; VRE 006 [H19t], Phase II, 1st): 0.25 mg/L (≈ 0.715 µM)
- MIC ([1]; VRE 006 [H19t], Phase II, 2nd): 0.25 mg/L (≈ 0.715 µM)
- MIC ([1]; VRE 007 [H23c], Phase I, 1st): 1 mg/L (≈ 2.86 µM)
- MIC ([1]; VRE 007 [H23c], Phase I, 2nd): 1 mg/L (≈ 2.86 µM)
- MIC ([1]; VRE 007 [H23c], Phase II, 1st): 0.25 mg/L (≈ 0.715 µM)
- MIC ([1]; VRE 007 [H23c], Phase II, 2nd): 0.25 mg/L (≈ 0.715 µM)
- MIC ([1]; VRE 008 [H16c(dc)], Phase I, 1st): 1 mg/L (≈ 2.86 µM)
- MIC ([1]; VRE 008 [H16c(dc)], Phase I, 2nd): 1 mg/L (≈ 2.86 µM)
- MIC ([1]; VRE 008 [H16c(dc)], Phase II, 1st): 1 mg/L (≈ 2.86 µM)
- MIC ([1]; VRE 008 [H16c(dc)], Phase II, 2nd): 1 mg/L (≈ 2.86 µM)
- MIC ([1]; VRE 009 [H25c], Phase I, 1st): 1 mg/L (≈ 2.86 µM)
- MIC ([1]; VRE 009 [H25c], Phase I, 2nd): 1 mg/L (≈ 2.86 µM)
- MIC ([1]; VRE 009 [H25c], Phase II, 1st): 1 mg/L (≈ 2.86 µM)
- MIC ([1]; VRE 009 [H25c], Phase II, 2nd): 1 mg/L (≈ 2.86 µM)
- MIC ([1]; VRE 010 [H26c(w)], Phase I, 1st): 2 mg/L (≈ 5.72 µM)
- MIC ([1]; VRE 010 [H26c(w)], Phase I, 2nd): 2 mg/L (≈ 5.72 µM)
- MIC ([1]; VRE 010 [H26c(w)], Phase II, 1st): 1 mg/L (≈ 2.86 µM)
- MIC ([1]; VRE 010 [H26c(w)], Phase II, 2nd): 1 mg/L (≈ 2.86 µM)
- MIC ([1]; VRE 011 [H26c(dc)], Phase I, 1st): 1 mg/L (≈ 2.86 µM)
- MIC ([1]; VRE 011 [H26c(dc)], Phase I, 2nd): 1 mg/L (≈ 2.86 µM)
- MIC ([1]; VRE 011 [H26c(dc)], Phase II, 1st): 0.5 mg/L (≈ 1.43 µM)
- MIC ([1]; VRE 011 [H26c(dc)], Phase II, 2nd): 0.5 mg/L (≈ 1.43 µM)
- MIC ([1]; VRE 012 [H35t], Phase I, 1st): 0.5 mg/L (≈ 1.43 µM)
- MIC ([1]; VRE 012 [H35t], Phase I, 2nd): 0.5 mg/L (≈ 1.43 µM)
- MIC ([1]; VRE 012 [H35t], Phase II, 1st): 0.25 mg/L (≈ 0.715 µM)
- MIC ([1]; VRE 012 [H35t], Phase II, 2nd): 0.5 mg/L (≈ 1.43 µM)
- MIC ([1]; VRE 013 [H37c(w)], Phase I, 1st): 2 mg/L (≈ 5.72 µM)
- MIC ([1]; VRE 013 [H37c(w)], Phase I, 2nd): 2 mg/L (≈ 5.72 µM)
- MIC ([1]; VRE 013 [H37c(w)], Phase II, 1st): 1 mg/L (≈ 2.86 µM)
- MIC ([1]; VRE 013 [H37c(w)], Phase II, 2nd): 1 mg/L (≈ 2.86 µM)
- MIC ([1]; VRE 014 [H37c(g)], Phase I, 1st): 1 mg/L (≈ 2.86 µM)
- MIC ([1]; VRE 014 [H37c(g)], Phase I, 2nd): 1 mg/L (≈ 2.86 µM)
- MIC ([1]; VRE 014 [H37c(g)], Phase II, 1st): 1 mg/L (≈ 2.86 µM)
- MIC ([1]; VRE 014 [H37c(g)], Phase II, 2nd): 1 mg/L (≈ 2.86 µM)
- MICrange ([2]; CA-MRSA (n = 10)): 8 to 128 µg/mL
- MICrange [2, 3]: 0.25-16^ μg/ml
- MIC ([2]; read-out: Observed MIC at 24-h, MRSA580, present study): > 128 mg/L
- MIC ([2]; read-out: Observed MIC at 24-h, MRSA698, present study): 16 mg/L (≈ 45.8 µM)
- MIC ([2]; read-out: Original MIC at 24-h, MRSA580, preliminary studies): > 128 mg/L
- MIC ([2]; read-out: Original MIC at 24-h, MRSA698, preliminary studies): 16 mg/L (≈ 45.8 µM)
- MIC ([2]; ATCC 49775 / MRSA / MSSA, read-out: Observed MIC at 24-h, ATCC 49775, present study): 0.25 mg/L (≈ 0.715 µM)
- MIC50 ([2]; CA-MRSA (n = 10)): 64 mg/L (≈ 183 µM)
- MIC90 ([2]; CA-MRSA (n = 10)): 128 mg/L (≈ 366 µM)
- MIC50 ([2]; HA-MRSA (n = 10)): 64 mg/L (≈ 183 µM)
- MIC90 ([2]; HA-MRSA (n = 10)): > 128 mg/L
- MIC50 [2, 3]: 0.25 mg/L (≈ 0.715 µM)
- MIC90 [2, 3]: 8 mg/L (≈ 22.9 µM)
- MIC50 [2, 4]: 16 mg/L (≈ 45.8 µM)
- MIC90 [2, 4]: 128 mg/L (≈ 366 µM)
